In patent publication US20230263758A1, “COMPOSITIONS OF EDTA HAVING ACTIVITY AGAINST PLANKTONIC AND BIOFILM CELLS OF CLINICALLY RELEVANT PATHOGENS” (SterileCare Inc., priority 2022, published 2023):
Counter-ions that a name gives are not always drawn.

Key:
S. epidermidis SK9 [1] = assay: Checkerboard titration, FICI; format: cell-based, Staphylococcus epidermidis
Experimental: (§1) A fourth composition and solution included tetrasodium EDTA with ethanol or chlorhexidine HCl. This fourth composition and solution were created using checkerboard titration methods using micro broth dilution in 96-well microtiter plates. The concentrations of antimicrobials used were based on previously determined MIC values. Briefly, 200 μL of two-fold dilutions of tetrasodium EDTA and ethanol or chlorhexidine HCl were prepared in MH or MH II broth with standardized cell suspension. […] Microtiter plates were incubated at 37° C. for 24 h, and the results were analyzed. Each test was performed in duplicate and included a growth control without adding any antimicrobials.

MRSA ON184 = assay: Checkerboard titration, FICI; format: cell-based, Staphylococcus aureus
Experimental: as §1

Candida albicans SK4b = assay: Checkerboard titration, FICI; format: cell-based; conditions: C. albicans SK4b
Experimental: as §1

Escherichia coli ON29 = assay: Checkerboard titration, FICI; format: cell-based; conditions: E. coli ON29
Experimental: as §1

Proteus mirabilis ON153 = assay: Checkerboard titration, FICI; format: cell-based; conditions: P. mirabilis ON153
Experimental: as §1

[2] = system: Pseudomonas aeruginosa SK1; assay: Checkerboard titration, FICI; format: cell-based; conditions: P. aeruginosa SK1
Experimental: as §1

Serratia marcescens SK2 = assay: Checkerboard titration, FICI; format: cell-based; conditions: S. marcescens SK2
Experimental: as §1

[3] = system: Staphylococcus aureus ON89; assay: Checkerboard titration, FICI; format: cell-based; conditions: S. aureus ON89
Experimental: as §1

[4] = system: Staphylococcus epidermidis ON170; assay: Checkerboard titration, FICI; format: cell-based; conditions: S. epidermidis ON170
Experimental: as §1

[5] = system: Stenotrophomonas maltophilia ON17; assay: Checkerboard titration, FICI; format: cell-based; conditions: S. maltophilia ON17
Experimental: as §1

E. coli SK2 = assay: Checkerboard titration, FICI; format: cell-based, Escherichia coli
Experimental: as §1

C. albicans ON47 [6] = assay: Checkerboard titration, FICI; format: cell-based, Candida albicans
Experimental: as §1

S. epidermidis SK9 [7] = assay: Checkerboard, FMCI; format: cell-based, Staphylococcus epidermidis; conditions: EDTA + chlorhexidine HCl
Experimental: (§2) An assay was made using a minimum inhibitory concentration (MIC) and minimum bactericidal concentration (MBC) and minimum fungicidal concentration (MFC) determination. The MIC was determined by the micro broth dilution method in 96-well plates. Serial two-fold dilutions of tetrasodium EDTA (from 2% to 0.015%), ethanol (from 50% to 0.1%) and chlorhexidine HCl (from 100 μg/mL to 0.025 μg/mL) were prepared in MH broth with a final volume of 90 μL per well. A 10 μL containing 1×10^5 bacterial cells or 2×10^3 fungal cells were added to each well. The inoculated plates were covered with a lid, sealed with Parafilm, and incubated for 24 h at 37° C. with slight rocking on a tilting platform shaker. After incubation, the optical density at 600 nm (OD 600) of the cultures in each well was measured using an xMark™ Microplate Absorbance Spectrophotometer (Bio-Rad). […] MBCs and MFCs were determined by transferring 100 μL from each well with no apparent growth onto appropriate agar plates, followed by incubation for 24 h at 37° C.
(§3) A fourth composition and solution included tetrasodium EDTA with ethanol or chlorhexidine HCl. […] The concentrations of antimicrobials used were based on previously determined MIC values. […] Microtiter plates were incubated at 37° C. for 24 h, and the results were analyzed. […]

C. albicans ON47 [8] = assay: Checkerboard, FMCI; format: cell-based, Candida albicans; conditions: EDTA + chlorhexidine HCl
Experimental: as §2, §3

[9] = system: Staphylococcus epidermidis SK9; assay: Checkerboard FBEC index, 48-h biofilm; format: cell-based; conditions: S. epidermidis SK9 biofilm
Experimental: (§4) In step (4), microtiter plates are incubated at 37° C. for 24 h. then (6), after incubation, the bacterial and fungal cells were dislodged from the pegs into the recovery medium described above.
(§5) Three 10-μL aliquots, for a total of 30 μL from each well of recovery medium, were spotted on MH agar plates and incubated for 24 h at 37° C. […] The FBEC determination is a modification of the FICI.

[10] = system: Staphylococcus aureus ON89; assay: Checkerboard FBEC index, 48-h biofilm; format: cell-based; conditions: S. aureus ON89 biofilm
Experimental: as §4, §5

Escherichia coli SK2 = assay: Checkerboard FBEC index, 48-h biofilm; format: cell-based; conditions: E. coli SK2 biofilm; EDTA + chlorhexidine HCl
Experimental: as §4, §5

[11] = system: 48-h-old biofilms of bacterial and fungal strains; assay: MBEC assay, summary, 24 h exposure of 48-h-old biofilms; format: cell-based
Experimental: A biofilm cultivation cell composition was provided. This fifth composition was created using an MBEC Assay® biofilm inoculator, consisting of a polystyrene lid with 96 downward-protruding pegs and a corresponding base used to grow biofilms. A standardized inoculum was diluted in an appropriate biofilm growth medium to achieve a viable cell count of 1.5×10^6 CFU/mL of bacterial cells or 5×10^5 CFU/mL of fungal cells. Then, 150 μL of this inoculum was transferred into each appropriate well, and the peg lids were inserted into the microtiter plates. The plates were sealed with Parafilm and were incubated at optimum temperature for 48 h with slight rocking for bacteria and shaking at 200 rpm for fungal strains. After incubation, the peg lid was removed from the base and rinsed twice with sterile phosphate-buffered saline (PBS) for 2 min to remove loosely attached non-sessile cells. Before the antimicrobial challenge, the pegs in column 1 (n=8) were considered the biofilm growth control; these pegs were removed from the lids, placed into 200 μL of recovery medium, and analyzed for starting biofilm cell numbers as described below. […] After the antimicrobial challenge, the pegs were rinsed twice with sterile PBS for 2 min and placed into a new 96-well plate containing 200 μL of recovery medium. The recovery plates were sealed with Parafilm, and biofilm cells were dislodged from the pegs by sonication for 30 min with a Branson 3510 bath sonicator. The biofilm cells in the recovery medium were serially diluted, and a drop dilution assay was performed to enumerate the viable cells. MBEC values were determined as the minimum concentration of antimicrobials that yielded a viable cell count at or lower than the 125 CFU/mL detection limit.

[12] = EDTA + chlorhexidine HCl checkerboard

SMILES | Inhibitory concentration in combination (S. epidermidis SK9 [1]; [12]) | Inhibitory concentration in combination (MRSA ON184; [12]) | Inhibitory concentration in combination (Candida albicans SK4b; [12]) | Inhibitory concentration in combination (Escherichia coli ON29; [12]) | Inhibitory concentration in combination (Proteus mirabilis ON153; [12]) | Inhibitory concentration in combination [2, 12] | Inhibitory concentration in combination (Serratia marcescens SK2; [12]) | Inhibitory concentration in combination [3, 12] | Inhibitory concentration in combination [4, 12] | Inhibitory concentration in combination [5, 12] | Inhibitory concentration in combination (E. coli SK2; [12]) | Inhibitory concentration in combination (C. albicans ON47 [6]; [12]) | Microbicidal concentration in combination (S. epidermidis SK9 [7]) | Microbicidal concentration in combination (C. albicans ON47 [8]) | Biofilm eradication concentration in combination (FBEC) (Escherichia coli SK2) | Concentration alone able to eradicate all established biofilms following 24 h of treatment [11] | further results
[H]/N=C(\N/C(=N/[H])NCCCCCCNC(=N)NC(=N)Nc1ccc(Cl)cc1)Nc1ccc(Cl)cc1 [Chlorhexidine HCl, chlorhexidine HCl, reference compound] | 0.025 µg/mL | 0.2 µg/mL | 0.8 µg/mL | 0.2 µg/mL | 0.8 µg/mL | 0.8 µg/mL | 1.5 µg/mL | 0.1 µg/mL | 0.05 µg/mL | 0.2 µg/mL | 0.1 µg/mL | 0.8 µg/mL | 0.4 µg/mL | 1.6 µg/mL | 3.125 µg/mL | 100 µg/mL | Biofilm eradication concentration in combination (FBEC) ([9]; EDTA + chlorhexidine HCl): 3.125 µg/mL; Biofilm eradication concentration in combination (FBEC) ([10]; EDTA + chlorhexidine HCl): 3.125 µg/mL
O=C([O-])CN(CCN(CC(=O)[O-])CC(=O)[O-])CC(=O)[O-].[Na+].[Na+].[Na+].[Na+] [EDTA, tetrasodium EDTA] | 0.015 % w/v | 0.008 % w/v | 0.063 % w/v | 0.008 % w/v | 0.063 % w/v | 0.5 % w/v | 0.063 % w/v | 0.008 % w/v | 0.063 % w/v | 0.015 % w/v | 0.008 % w/v | 0.125 % w/v | 0.008 % w/v | 0.031 % w/v | 0.031 % w/v | 4% | Inhibitory concentration in combination (S. epidermidis SK9 [1]; EDTA + ethanol checkerboard): 0.015 % w/v; Inhibitory concentration in combination (MRSA ON184; EDTA + ethanol checkerboard): 0.015 % w/v; Inhibitory concentration in combination (Candida albicans SK4b; EDTA + ethanol checkerboard): 0.25 % w/v; Inhibitory concentration in combination (Escherichia coli ON29; EDTA + ethanol checkerboard): 0.25 % w/v; Inhibitory concentration in combination (Proteus mirabilis ON153; EDTA + ethanol checkerboard): 0.5 % w/v; Inhibitory concentration in combination ([2]; EDTA + ethanol checkerboard): 0.031 % w/v; Inhibitory concentration in combination (Serratia marcescens SK2; EDTA + ethanol checkerboard): 0.5 % w/v; Inhibitory concentration in combination ([3]; EDTA + ethanol checkerboard): 0.015 % w/v; Inhibitory concentration in combination ([4]; EDTA + ethanol checkerboard): 0.015 % w/v; Inhibitory concentration in combination ([5]; EDTA + ethanol checkerboard): 0.031 % w/v; Inhibitory concentration in combination (E. coli SK2; EDTA + ethanol checkerboard): 0.015 % w/v; Inhibitory concentration in combination (C. albicans ON47 [6]; EDTA + ethanol checkerboard): 0.25 % w/v; Biofilm eradication concentration in combination (FBEC) ([9]; EDTA + ethanol): 0.031 % w/v; Biofilm eradication concentration in combination (FBEC) ([10]; EDTA + ethanol): 0.063 % w/v
